One assay addresses T1, Fyn (Homo sapiens, UniProt P06241).
T1 construct: expressed in transfected cells; host or cells: COS-1
The experiment in a line: Fyn fatty acylation (IC13/IC16 incorporation) in transfected COS-1 cells. The format is cell-based. To be noted: COS-1 cells, 100 μM 2-bromopalmitate, normalized for total protein levels. Here is the method: The syntheses of 13-[^125I]-iodotridecanoic acid (IC13)or 16-[^125I]-iodohexanoic acid (IC16) were carried out as described previously (39). Cell labeling was carried out as described (12,13) with modifications. Briefly, each 60 mm plate of Fyn transfected COS-1 cells was incubated O/N in DMEM containing 2.5% FBS, 0.5% defatted BSA (Sigma) with or without 100 μM 2-bromopalmitate or 50 μM polyunsaturated fatty acid. Prior to labeling, the cells were incubated for 1 hr with 1 ml of DMEM containing 2% dialyzed FBS, then labeled for 4 hours with 25-50 μCi IC13 or IC16 in DMEM containing 2% dialyzed FBS, 0.5% defatted BSA with or without 2-bromopalmitate or polyunsaturated fatty acid. Labeled cells were washed three times with cold STE (100 mM NaCl, 10 mM Tris pH 7.4, 1 mM EDTA) and lysed in 0.6 ml of cold RIPA buffer containing protease inhibitors (10 μg/ml each of benzamidine, AEBSF, TPCK and TLCK, 1.5 μg/ml each of Leupeptin, Pepstatin A and Aprotinin). Lysates were clarified at 100,000×g for 15 min at 4° C. in a Beckman TL-100 ultracentrifuge. Lysates were immunoprecipitated with rabbit anti-Fyn antibody and protein A-agarose. Immunoprecipitates were washed three times with cold RIPA buffer and suspended in 1× sample buffer containing 100 mM dithiothreitol and subjected to SDS-PAGE. Gels were dried between cellophane and analyzed by phosphorimaging after 12-36 hours exposure. Experiments in Jurkat T cells were carried out according to the above protocol using 2×10^7 cells per experiment, and reducing the incubation time with 2-bromopalmitate to 3-4 hours.
A number of palmitic acid analogs were screened for their ability to inhibit Fyn palmitoylation. COS-1 cells were transfected with cDNA encoding Fyn. Three days after transfection, the cells were labeled with either [^35S]-methionine, 13-[^125I]-iodotridecanoic acid (IC13), an iodinated myristate analog, or 16-[^125I]-iodohexanoic acid (IC16), an iodinated palmitic acid analog (39), in the presence or absence of nonradioactive palmitate analogs. Cells were lysed, immunoprecipitated with anti-Fyn antibody, and analyzed by SDS-PAGE and phosphorimaging. […] When normalized for total protein levels, 70% of Fyn myristoylation and over 90% of Fyn palmitoylation was inhibited in the presence of 2-bromopalmitate. Treatment of cells with other analogs, including 2-hydroxypalmitate, palmitoleic acid and 16-hydroxypalmitate had no effect (data not shown).
To test this hypothesis, Fyn transfected COS-1 cells were incubated O/N with or without 50 μM arachidonic acid (20:4) or eicosapentaenoic acid (20:5), then labeled with IC13 or IC16. Total protein levels were monitored by immunoblotting aliquots of each sample with anti-Fyn antibody (FIG. 8A, lower panel).

The next assay relates to MAP kinase. The experiment in a line: Activation of MAP kinase in Jurkat cells (pERK immunoblot). It is filed as cell-based. Conditions: OKT3 activated, pERK1 blot. Here is the method:
Jurkat cells were treated with 2-bromopalmitate and activated as described above. Lysates were analyzed for the presence of active MAP kinase by immunoblotting with a pERK antibody, and for total MAP kinase by immunoblotting with an anti MAPK antibody.
One of the proximal events following T cell receptor engagement is activation of the MAP Kinase pathway. The ability of 2-bromopalmitate to inhibit activation of MAP kinase was examined in Jurkat cells. Cells were cultured with or without 2bromo-palmitate and activated as described above. Cell lysates were subjected to SDS-PAGE and immunoblotted with anti-active MAPK kinase (pERK1). As depicted in FIG. 7, 2-bromopalmitate inhibited the activation of MAPK kinase by 70%. The levels of total MAPK kinase remained unchanged (FIG. 7).
In general terms: A western blot detects proteins with antibodies after separation by electrophoresis.

T1 sequence (P06241 whole entry, species assumed): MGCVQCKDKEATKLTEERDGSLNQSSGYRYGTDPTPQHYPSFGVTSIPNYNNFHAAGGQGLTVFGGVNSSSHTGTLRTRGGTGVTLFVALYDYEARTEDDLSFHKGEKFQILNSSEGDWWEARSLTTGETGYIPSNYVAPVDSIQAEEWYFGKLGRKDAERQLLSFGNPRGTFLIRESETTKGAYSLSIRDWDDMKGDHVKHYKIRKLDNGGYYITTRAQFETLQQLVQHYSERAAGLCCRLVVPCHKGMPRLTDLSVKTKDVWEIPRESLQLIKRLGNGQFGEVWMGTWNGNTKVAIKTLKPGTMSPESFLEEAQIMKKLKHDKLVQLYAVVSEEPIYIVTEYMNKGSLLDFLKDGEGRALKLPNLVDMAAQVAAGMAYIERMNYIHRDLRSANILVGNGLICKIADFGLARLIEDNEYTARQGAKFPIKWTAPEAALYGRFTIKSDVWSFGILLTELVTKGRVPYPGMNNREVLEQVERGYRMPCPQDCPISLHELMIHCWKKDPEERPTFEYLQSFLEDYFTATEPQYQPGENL

On to `CCCCCCCCCCCCCCC(Br)C(=O)O` (stereo not drawn) [2-bromopalmitate], for which the Fyn myristoylation inhibited at Fyn (IC13 label) stood at 70%. For the same compound, at Fyn (IC16 label), the Fyn palmitoylation inhibited result is given as “over 90%”. For the same compound, in the assay with MAP kinase, the “activation of MAPK kinase inhibited” value is 70%.

For the origin of these results see patent US6890954B1, “Uses of 2-bromopalmitate in the treatment of autoimmune disease” (priority 1999, dated 2005).
